{"source": "patent US10770169B2", "about": "“Method of providing a treatment to a subject based on a dynamic pathway map” (THE REGENTS OF THE UNIVERSITY OF CALIFORNIA, priority 2010, dated 2020)", "key": {"[1]": {"tested_on": "luminal, basal, claudin-low and ERBB2AMP breast cancer cell lines", "assay": "Associations of clinically relevant subtypes and response (non-parametric ANOVA or t-test on GI50 ranks)", "assay_type": "cell-based, human", "conditions": "Table 6; most sensitive subtype, FDR p<0.20", "method_in_brief": "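Significance was set at FDR p<0.20 after combining p-values across three test sets. Subtype–response associations came from rank-based non-parametric ANOVA or t-tests on GI50. For three-class comparisons, post-hoc tests of each group against the rest identified the most sensitive group, with FDR correction.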"}, "[2]": {"tested_on": "panel of 55 breast cancer cell lines", "assay": "Cell growth inhibition assay (Cell Titer Glo, 72 h, 9 doses; GI50, TGI, LC50)", "assay_type": "cell-based, human", "conditions": "value is the negative log10 of mol/L"}}, "data": [{"smiles": "CC(/C=C/C(=O)NO)=C\\[C@@H](C)C(=O)c1ccc(N(C)C)cc1", "note": "[Trichostatin A]", "values": [{"measurement": "Subtype specificity", "setting": "[1]", "result": "Luminal"}, {"measurement": "GI50", "setting": "[2]; 600MPE cell line, censored GI50 values", "result": 5.18}, {"measurement": "GI50", "setting": "[2]; AU565 cell line, censored GI50 values", "result": 5.43}, {"measurement": "GI50", "setting": "[2]; BT20 cell line, censored GI50 values", "result": 4.81}, {"measurement": "GI50", "setting": "[2]; BT474 cell line, censored GI50 values", "result": 5.00}, {"measurement": "GI50", "setting": "[2]; BT483 cell line, censored GI50 values", "result": 5.00}, {"measurement": "GI50", "setting": "[2]; BT549 cell line, censored GI50 values", "result": 5.13}, {"measurement": "GI50", "setting": "[2]; CAMA1 cell line, censored GI50 values", "result": 5.57}, {"measurement": "GI50", "setting": "[2]; HCC38 cell line, censored GI50 values", "result": 5.22}, {"measurement": "GI50", "setting": "[2]; HCC70 cell line, censored GI50 values", "result": 4.84}, {"measurement": "GI50", "setting": "[2]; HCC202 cell line, censored GI50 values", "result": 6.04}, {"measurement": "GI50", "setting": "[2]; HCC1143 cell line, censored GI50 values", "result": 4.77}, {"measurement": "GI50", "setting": "[2]; HCC1187 cell line, censored GI50 values", "result": 5.32}, {"measurement": "GI50", "setting": "[2]; HCC1395 cell line, censored GI50 values", "result": 4.50}, {"measurement": "GI50", "setting": "[2]; HCC1419 cell line, censored GI50 values", "result": 4.85}, {"measurement": "GI50", "setting": "[2]; HCC1428 cell line, censored GI50 values", "result": 5.73}, {"measurement": "GI50", "setting": "[2]; HCC1500 cell line, censored GI50 values", "result": 4.82}, {"measurement": "GI50", "setting": "[2]; HCC1806 cell line, censored GI50 values", "result": 4.97}, {"measurement": "GI50", "setting": "[2]; HCC1937 cell line, censored GI50 values", "result": 4.82}, {"measurement": "GI50", "setting": "[2]; HCC1954 cell line, censored GI50 values", "result": 4.95}, {"measurement": "GI50", "setting": "[2]; HCC2185 cell line, censored GI50 values", "result": 4.79}, {"measurement": "GI50", "setting": "[2]; HCC3153 cell line, censored GI50 values", "result": 4.62}, {"measurement": "GI50", "setting": "[2]; LY2 cell line, censored GI50 values", "result": 4.86}, {"measurement": "GI50", "setting": "[2]; MCF7 cell line, censored GI50 values", "result": 5.16}, {"measurement": "GI50", "setting": "[2]; MDAMB134VI cell line, censored GI50 values", "result": 5.17}, {"measurement": "GI50", "setting": "[2]; MDAMB157 cell line, censored GI50 values", "result": 4.68}, {"measurement": "GI50", "setting": "[2]; MDAMB175VII cell line, censored GI50 values", "result": 5.23}, {"measurement": "GI50", "setting": "[2]; MDAMB231 cell line, censored GI50 values", "result": 5.26}, {"measurement": "GI50", "setting": "[2]; MDAMB361 cell line, censored GI50 values", "result": 5.09}, {"measurement": "GI50", "setting": "[2]; MDAMB415 cell line, censored GI50 values", "result": 4.90}, {"measurement": "GI50", "setting": "[2]; MDAMB436 cell line, censored GI50 values", "result": 4.67}, {"measurement": "GI50", "setting": "[2]; MDAMB453 cell line, censored GI50 values", "result": 5.23}, {"measurement": "GI50", "setting": "[2]; MDAMB468 cell line, censored GI50 values", "result": 4.85}, {"measurement": "GI50", "setting": "[2]; SKBR3 cell line, censored GI50 values", "result": 5.21}, {"measurement": "GI50", "setting": "[2]; SUM52PE cell line, censored GI50 values", "result": 5.57}, {"measurement": "GI50", "setting": "[2]; SUM149PT cell line, censored GI50 values", "result": 5.14}, {"measurement": "GI50", "setting": "[2]; SUM159PT cell line, censored GI50 values", "result": 5.23}, {"measurement": "GI50", "setting": "[2]; SUM185PE cell line, censored GI50 values", "result": 4.76}, {"measurement": "GI50", "setting": "[2]; SUM225CWN cell line, censored GI50 values", "result": 4.85}, {"measurement": "GI50", "setting": "[2]; SUM1315MO2 cell line, censored GI50 values", "result": 4.31}, {"measurement": "GI50", "setting": "[2]; T47D cell line, censored GI50 values", "result": 5.44}, {"measurement": "GI50", "setting": "[2]; UACC812 cell line, censored GI50 values", "result": 5.04}, {"measurement": "GI50", "setting": "[2]; UACC893 cell line, censored GI50 values", "result": 5.54}, {"measurement": "GI50", "setting": "[2]; ZR75B cell line, censored GI50 values", "result": 5.30}, {"measurement": "GI50", "setting": "[2]; ZR751 cell line, censored GI50 values", "result": 4.74}, {"measurement": "GI50", "setting": "[2]; cell line 600MPE", "result": 5.18}, {"measurement": "GI50", "setting": "[2]; cell line AU565", "result": 5.43}, {"measurement": "GI50", "setting": "[2]; cell line BT20", "result": 4.81}, {"measurement": "GI50", "setting": "[2]; cell line BT474", "result": 5.00}, {"measurement": "GI50", "setting": "[2]; cell line BT483", "result": 5.00}, {"measurement": "GI50", "setting": "[2]; cell line BT549", "result": 5.13}, {"measurement": "GI50", "setting": "[2]; cell line CAMA1", "result": 5.57}, {"measurement": "GI50", "setting": "[2]; cell line HCC38", "result": 5.22}, {"measurement": "GI50", "setting": "[2]; cell line HCC70", "result": 4.84}, {"measurement": "GI50", "setting": "[2]; cell line HCC202", "result": 6.04}, {"measurement": "GI50", "setting": "[2]; cell line HCC1143", "result": 4.77}, {"measurement": "GI50", "setting": "[2]; cell line HCC1187", "result": 5.32}, {"measurement": "GI50", "setting": "[2]; cell line HCC1395", "result": 4.50}, {"measurement": "GI50", "setting": "[2]; cell line HCC1419", "result": 4.85}, {"measurement": "GI50", "setting": "[2]; cell line HCC1428", "result": 5.73}, {"measurement": "GI50", "setting": "[2]; cell line HCC1500", "result": 4.82}, {"measurement": "GI50", "setting": "[2]; cell line HCC1806", "result": 4.97}, {"measurement": "GI50", "setting": "[2]; cell line HCC1937", "result": 4.82}, {"measurement": "GI50", "setting": "[2]; cell line HCC1954", "result": 4.95}, {"measurement": "GI50", "setting": "[2]; cell line HCC2185", "result": 4.79}, {"measurement": "GI50", "setting": "[2]; cell line HCC3153", "result": 4.62}, {"measurement": "GI50", "setting": "[2]; cell line LY2", "result": 4.86}, {"measurement": "GI50", "setting": "[2]; cell line MCF7", "result": 5.16}, {"measurement": "GI50", "setting": "[2]; cell line MDAMB134V", "result": 5.17}, {"measurement": "GI50", "setting": "[2]; cell line MDAMB157", "result": 4.68}, {"measurement": "GI50", "setting": "[2]; cell line MDAMB175V", "result": 5.23}, {"measurement": "GI50", "setting": "[2]; cell line MDAMB231", "result": 5.26}, {"measurement": "GI50", "setting": "[2]; cell line MDAMB361", "result": 5.09}, {"measurement": "GI50", "setting": "[2]; cell line MDAMB415", "result": 4.90}, {"measurement": "GI50", "setting": "[2]; cell line MDAMB436", "result": 4.67}, {"measurement": "GI50", "setting": "[2]; cell line MDAMB453", "result": 5.23}, {"measurement": "GI50", "setting": "[2]; cell line MDAMB468", "result": 4.85}, {"measurement": "GI50", "setting": "[2]; cell line SKBR3", "result": 5.21}, {"measurement": "GI50", "setting": "[2]; cell line SUM52PE", "result": 5.57}, {"measurement": "GI50", "setting": "[2]; cell line SUM149PT", "result": 5.14}, {"measurement": "GI50", "setting": "[2]; cell line SUM159PT", "result": 5.23}, {"measurement": "GI50", "setting": "[2]; cell line SUM185PE", "result": 4.76}, {"measurement": "GI50", "setting": "[2]; cell line SUM225CWN", "result": 4.85}, {"measurement": "GI50", "setting": "[2]; cell line SUM1315MO", "result": 4.31}, {"measurement": "GI50", "setting": "[2]; cell line T47D", "result": 5.44}, {"measurement": "GI50", "setting": "[2]; cell line UACC812", "result": 5.04}, {"measurement": "GI50", "setting": "[2]; cell line UACC893", "result": 5.54}, {"measurement": "GI50", "setting": "[2]; cell line ZR75B", "result": 5.30}, {"measurement": "GI50", "setting": "[2]; cell line ZR751", "result": 4.74}]}]}
